Columns and labels:
Assay type in all cases: nucleic-acid assay, Bos taurus
Nucleic Acid [1] = experiment: Binding affinity to Calf thymus DNA type XV; value ranges from 4E6 - 6E6 M-1
Nucleic Acid [2] = experiment: Binding affinity to Calf thymus DNA type XV; value ranges from 2E6 - 4E6 M-1
Nucleic Acid [3] = experiment: Binding affinity to Calf thymus DNA type XV
Nucleic Acid [4] = experiment: Binding affinity to Calf thymus DNA type XV; value ranges from 1E4 - 3E4 M-1

COc1cccc2c1C(=O)c1c(O)c3c(c(O)c1C2=O)C[C@@](O)(C(C)=O)C[C@@H]3O[C@H]1C[C@H](N)[C@H](O)[C@H](C)O1.Cl [DAUNORUBICIN HYDROCHLORIDE]
Ka (Nucleic Acid [1]): 4000000 M⁻¹

COc1cccc2c1C(=O)c1c(O)c3c(c(O)c1C2=O)C[C@@](O)(C(=O)CO)C[C@@H]3O[C@H]1C[C@H](N)[C@H](O)[C@H](C)O1 [DOXORUBICIN]
Ka (Nucleic Acid [2]): 2000000 M⁻¹

CC(=O)[C@@]1(O)CCc2c(c(O)c3c(c2COCCCN)C(=O)c2ccccc2C3=O)C1.Cl
Ka (Nucleic Acid [3]): 61000 M⁻¹

COc1cccc2c1C(=O)c1c(O)c3c(c(O)c1C2=O)C[C@@](O)(C(C)=O)C[C@@H]3O [DAUNOMYCINONE]
Ka (Nucleic Acid [4]): 10000 M⁻¹

Source: ChEMBL document CHEMBL1151523, “Synthesis of ()-6-(3-aminopropyloxy)methyl-4-demethoxy-6, 7-dideoxy-daunomycinone, a new dna intercalator related to anthracyclines” (Bioorg Med Chem Lett, 1995)
